Source: US11713344B2 (DONG-A ST CO., LTD., priority 2017, dated 2023)

What was measured:
[1] = target: Human glucagon receptors (Homo sapiens, UniProt P47871); assay: Glucagon receptor activation assay (CRE-luciferase reporter, CHO-K1)
[2] = target: Human GLP-1 receptors (Homo sapiens, UniProt P43220); assay: GLP-1 receptor activation assay (CRE-luciferase reporter, CHO-K1)
Sequence of Human GLP-1 receptors (P43220 24-463): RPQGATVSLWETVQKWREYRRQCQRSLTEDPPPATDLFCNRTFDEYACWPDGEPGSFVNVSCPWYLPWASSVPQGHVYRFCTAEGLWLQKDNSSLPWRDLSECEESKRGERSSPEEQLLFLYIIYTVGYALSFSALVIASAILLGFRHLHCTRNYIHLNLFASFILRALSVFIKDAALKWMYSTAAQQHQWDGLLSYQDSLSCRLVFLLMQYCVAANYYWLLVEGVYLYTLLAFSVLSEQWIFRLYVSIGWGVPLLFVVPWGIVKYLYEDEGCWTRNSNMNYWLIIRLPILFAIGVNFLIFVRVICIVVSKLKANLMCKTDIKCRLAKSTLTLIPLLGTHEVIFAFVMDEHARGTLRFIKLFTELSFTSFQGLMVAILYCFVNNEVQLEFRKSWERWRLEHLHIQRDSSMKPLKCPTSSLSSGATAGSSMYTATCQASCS

Sequence of Human glucagon receptors (P47871 26-477): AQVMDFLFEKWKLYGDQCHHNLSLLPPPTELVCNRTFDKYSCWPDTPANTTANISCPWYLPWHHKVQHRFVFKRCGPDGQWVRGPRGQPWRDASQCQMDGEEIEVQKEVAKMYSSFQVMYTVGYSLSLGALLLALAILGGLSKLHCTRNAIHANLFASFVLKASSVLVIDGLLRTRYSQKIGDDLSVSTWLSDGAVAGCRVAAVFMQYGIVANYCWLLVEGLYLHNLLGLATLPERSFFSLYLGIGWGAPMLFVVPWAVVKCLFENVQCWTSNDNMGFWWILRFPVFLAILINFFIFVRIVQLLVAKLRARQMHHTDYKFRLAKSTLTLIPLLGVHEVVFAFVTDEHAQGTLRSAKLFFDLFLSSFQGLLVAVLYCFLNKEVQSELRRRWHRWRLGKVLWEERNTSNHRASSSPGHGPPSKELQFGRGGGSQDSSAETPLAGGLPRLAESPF

## CCCCCCCCCCCCCCCCCC(=O)N[C@@H](CCC(=O)NCCOCCOCC(=O)NCCOCCOCC(=O)NCCCC[C@H](NC(=O)[C@H](CC(=O)O)NC(=O)[C@H](CO)NC(=O)[C@@H](NC(=O)[C@H](Cc1ccccc1)NC(=O)[C@@H](NC(=O)CNC(=O)[C@H](CCC(N)=O)NC(=O)C(C)(C)NC(=O)[C@@H](N)Cc1c[nH]cn1)[C@@H](C)O)[C@@H](C)O)C(=O)N[C@@H](CO)C(=O)N[C@@H](CCCCN)C(=O)N[C@@H](Cc1ccc(O)cc1)C(=O)N[C@@H](CC(C)C)C(=O)N[C@@H](CC(=O)O)C(=O)N[C@H]1CC(=O)NCCCC[C@@H](C(=O)N[C@@H](CC(=O)O)C(=O)N[C@@H](Cc2ccccc2)C(=O)N[C@H](C(=O)N[C@@H](CCC(N)=O)C(=O)N[C@@H](Cc2c[nH]c3ccccc23)C(=O)N[C@@H](CC(C)C)C(=O)N[C@@H](CCSC)C(=O)N[C@@H](CC(N)=O)C(=O)N[C@H](C(=O)N[C@@H](CCCCN)C(=O)O)[C@@H](C)O)C(C)C)NC(=O)[C@H](C)NC(=O)[C@H](CCCNC(=N)N)NC(=O)[C@H](CCCNC(=N)N)NC1=O)C(=O)O [Compound 26, H-HAibQGTFTSDZSKYLDDRRAKDFVQWLMNTK-OH]
[1]
  EC50: < 10 pM
[2]
  EC50: < 10 pM

## CCCCCCCCCCCCCCCCCC(=O)N[C@@H](CCC(=O)NCCOCCOCC(=O)NCCOCCOCC(=O)NCCCC[C@H](NC(=O)[C@H](CC(=O)O)NC(=O)[C@H](CO)NC(=O)[C@@H](NC(=O)[C@H](Cc1ccccc1)NC(=O)[C@@H](NC(=O)CNC(=O)[C@H](CCC(N)=O)NC(=O)C(C)(C)NC(=O)[C@@H](N)Cc1c[nH]cn1)[C@@H](C)O)[C@@H](C)O)C(=O)N[C@@H](CO)C(=O)N[C@@H](CCCCN)C(=O)N[C@@H](Cc1ccc(O)cc1)C(=O)N[C@@H](CC(C)C)C(=O)N[C@@H](CC(=O)O)C(=O)N[C@H]1CCCCNC(=O)C[C@@H](C(=O)N[C@@H](CC(=O)O)C(=O)N[C@@H](Cc2ccccc2)C(=O)N[C@H](C(=O)N[C@@H](CCC(N)=O)C(=O)N[C@@H](Cc2c[nH]c3ccccc23)C(=O)N[C@@H](CC(C)C)C(=O)N[C@@H](CCSC)C(=O)N[C@@H](CC(N)=O)C(=O)N[C@H](C(=O)N[C@@H](CCCCN)C(=O)O)[C@@H](C)O)C(C)C)NC(=O)[C@H](C)NC(=O)[C@H](CCCNC(=N)N)NC(=O)[C@H](CCCNC(=N)N)NC1=O)C(=O)O [Compound 27, H-HAibQGTFTSDZSKYLDKRRADDFVQWLMNTK-OH]
[1]
  EC50: < 10 pM
[2]
  EC50: < 10 pM

## CCCCCCCCCCCCCCCCCC(=O)N[C@@H](CCC(=O)NCCOCCOCC(=O)NCCOCCOCC(=O)NCCCC[C@H](NC(=O)[C@H](CC(=O)O)NC(=O)[C@H](CO)NC(=O)[C@@H](NC(=O)[C@H](Cc1ccccc1)NC(=O)[C@@H](NC(=O)CNC(=O)[C@H](CCC(N)=O)NC(=O)C(C)(C)NC(=O)[C@@H](N)Cc1c[nH]cn1)[C@@H](C)O)[C@@H](C)O)C(=O)N[C@@H](CO)C(=O)N[C@@H](CCCCN)C(=O)N[C@@H](Cc1ccc(O)cc1)C(=O)N[C@@H](CC(C)C)C(=O)N[C@@H](CC(=O)O)C(=O)N[C@H]1CSSC[C@@H](C(=O)N[C@@H](CC(=O)O)C(=O)N[C@@H](Cc2ccccc2)C(=O)N[C@H](C(=O)N[C@@H](CCC(N)=O)C(=O)N[C@@H](Cc2c[nH]c3ccccc23)C(=O)N[C@@H](CC(C)C)C(=O)N[C@@H](CCSC)C(=O)N[C@@H](CC(N)=O)C(=O)N[C@H](C(=O)N[C@@H](CCCCN)C(=O)O)[C@@H](C)O)C(C)C)NC(=O)[C@H](C)NC(=O)[C@H](CCCNC(=N)N)NC(=O)[C@H](CCCNC(=N)N)NC1=O)C(=O)O [Compound 28, H-HAibQGTFTSDZSKYLDCRRACDFVQWLMNTK-OH]
[1]
  EC50: 100 to 1000 pM
[2]
  EC50: 100 to 1000 pM
